Measured values published in PMC11051924, “Design, Synthesis, and Biological Evaluation of Novel Tetrahydroacridin Hybrids with Sulfur-Inserted Linkers as Potential Multitarget Agents for Alzheimer’s Disease” (Molecules, 2024).
Entries after “also recorded” stand apart in the source; their conditions may differ. Where two headings read alike, the source gives them in different places.

Legend:
AChE [1] = target: T1, AChE (Electrophorus electricus, UniProt O42275); test: biochemical; parameters: species or system electric eel
T1 sequence (O42275 24-633): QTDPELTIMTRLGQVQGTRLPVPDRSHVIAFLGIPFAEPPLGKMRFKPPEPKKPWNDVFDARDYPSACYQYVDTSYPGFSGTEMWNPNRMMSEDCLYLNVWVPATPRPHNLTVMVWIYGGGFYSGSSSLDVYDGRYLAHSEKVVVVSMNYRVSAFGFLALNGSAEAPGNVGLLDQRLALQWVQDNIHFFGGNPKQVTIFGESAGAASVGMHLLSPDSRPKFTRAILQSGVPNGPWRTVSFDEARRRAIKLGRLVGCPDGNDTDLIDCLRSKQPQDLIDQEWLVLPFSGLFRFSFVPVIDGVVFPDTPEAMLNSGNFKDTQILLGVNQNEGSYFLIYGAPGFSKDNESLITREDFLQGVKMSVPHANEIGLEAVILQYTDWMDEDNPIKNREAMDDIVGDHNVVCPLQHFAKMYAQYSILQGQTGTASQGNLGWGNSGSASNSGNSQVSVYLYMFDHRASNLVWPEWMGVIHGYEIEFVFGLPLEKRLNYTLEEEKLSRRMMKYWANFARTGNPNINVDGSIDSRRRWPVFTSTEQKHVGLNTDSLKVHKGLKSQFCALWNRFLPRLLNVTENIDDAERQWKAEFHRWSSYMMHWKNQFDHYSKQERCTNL
Description: The inhibitory activities of the compounds on AChE were determined by an Ellman assay. First, 20 μL of phosphate buffer was added to a 96-well plate. Then, compounds of different concentrations (20 μL), 100μL of 1mM DTNB, and 40 μL of AChE solution (2 U/mL) were added successively. The plate was incubated at 37 °C for 15 min. Briefly, 20 μL of acetylthiocholine iodide (1 mM) was added to the mixed solution. The plate was incubated at 25 °C for 20 min. The reaction was terminated by adding 3% SDS to each well. […] The inhibition of each compound was calculated using the formula (1 − Ai/Ac) × 100, where Ai and Ac represent the absorbance of the reaction mixture in the presence and absence of inhibitors, respectively. The IC50 values of all target compounds were calculated by using Graph Pad Prism 9.5.

recombinant human GSK-3β = target: T2, recombinant human GSK-3β (Homo sapiens, UniProt P49841); test: GSK-3β inhibition (luciferin kinase detection); type: biochemical
T2 construct: purchased
T2 sequence (P49841 whole entry): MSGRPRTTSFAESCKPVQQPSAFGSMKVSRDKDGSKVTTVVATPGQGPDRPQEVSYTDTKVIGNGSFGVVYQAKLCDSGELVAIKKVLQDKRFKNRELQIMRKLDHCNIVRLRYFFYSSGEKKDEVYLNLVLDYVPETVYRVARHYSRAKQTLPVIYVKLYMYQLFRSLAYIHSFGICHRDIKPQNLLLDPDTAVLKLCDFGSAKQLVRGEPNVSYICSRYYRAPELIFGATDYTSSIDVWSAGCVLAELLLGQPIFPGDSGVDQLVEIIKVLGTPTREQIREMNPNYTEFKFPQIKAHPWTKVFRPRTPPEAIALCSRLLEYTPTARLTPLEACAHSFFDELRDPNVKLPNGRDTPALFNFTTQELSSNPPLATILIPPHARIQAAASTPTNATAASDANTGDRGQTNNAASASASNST
Description: Add ATP and substrate polypeptide to the reaction template for GSK-3β under the most suitable enzyme reaction system and conditions, let the enzyme react with ATP and substrate polypeptide, and use luciferin kinase detection technology to detect enzyme activity. All the compounds to be tested were prepared by adding DMSO to a solution with a concentration of 10^−2 mol/L and diluted with PBS to the required concentration when used; the purchased GSK-3β was diluted from 1600 ng/μL to 2 ng/μL, ready for use.

AChE [2] = target: T1, AChE; test: Kinetic study of AChE inhibition (Lineweaver–Burk); type: biochemical; details: Lineweaver–Burk plots; 0.02, 0.04, 0.08 μM inhibitor
Description: In 96-well plates, 20μL of PBS, compound 18a (20 μL) with three final concentrations (0.02 μM, 0.04 μM, and 0.08 μM), 20 μL of acetylthiocholine iodide (50–300 μM), and 40 μL of AChE (2 U/mL) were added successively. After incubation at 37 °C for 15 min, 100 μL of DTNB (1 mM) was added. A microplate reader (Thermo, Waltham, MA, USA) was used to record the absorbance at 405 nm. Lineweaver–Burk reciprocal plots were created by graphing 1/V vs. 1/[S] by using GraphPad Prism 9.5.

HepG2 cells = test: Hepatotoxicity on HepG2 cells (MTT assay); type: cell-based; details: concentrations of up to 20 μM
Description: HepG2 cells were cultured in DMEM supplemented with 10% FBS and 100 U/mL of penicillin-streptomycin (Thermo, Waltham, MA, USA) at 37 °C in a humidified atmosphere containing 5% CO2.
HepG2 cells were seeded in 96-well plates at a density of 2 × 10^4 cells per well. After 24 h, different concentrations of tacrine or compound 18a (1 μM, 5 μM, 10 μM, and 20 μM) and DMSO were added to the wells. MTT assay was performed, and the survival percentage of cells was calculated.

[3] = tested on: SH-SY5Y neuroblastoma cells; test: Cytotoxicity on SH-SY5Y cells (MTT assay); type: cell-based, human; details: concentrations of up to 25 μM
Description: SH-SY5Y cells were cultured in Dulbecco’s modified Eagle medium (DMEM) with F12 (KeyGEN BioTECH, Nanjing, China), supplemented with 10% (v/v) fetal bovine serum (FBS) (Sen Bei Jia) and antibiotics (penicillin streptomycin) (KeyGEN BioTECH, Nanjing, China). Cells were kept at 37 °C and 5% CO2 in a humidified atmosphere in a cell culture incubator and passaged twice a week.
The cytotoxicity assay on SH-SY5Y cells was the same as in our previous studies. Cells were seeded in a 96-well plate, and the medium was removed after 24 h. Compound 18a (3.125 μM, 6.25 μM, 12.5 μM, and 25 μM) was added to each well. After treatment for 24 h, 10 μL of 3-(4,5-dimethyl-2-thiazolyl)-2,5-diphenyl-2-H-tetrazolium bromide was added to each well. After incubation at 37 °C for 4 h, 100 μL of DMSO was added, and the absorbance of the mixture was determined at 590 nm using a microplate reader (FC/K3, Thermo, Waltham, MA, USA). We used the formula Ae/Ab 100% to calculate the survival rate, where Ae and Ab represent the absorbance in the presence and absence of the tested drugs. Each experiment was carried out three times in total.

GSK-3β = details: cited from earlier work
AChE [4] = target: T1, AChE; parameters: method as in PMID 34024109; details: value of the design leads (abstract, Figure 2); cited from earlier work
[5] = AChE from electric eel, mean of three independent determinations, read-out: IC50 (μM) ± SEM AChE
[6] = recombinant human GSK-3β, mean of three independent determinations, read-out: IC50 (μM) ± SEM GSK-3β

Row | SMILES | IC50 (AChE [1]; [5]) [µM] | IC50 (recombinant human GSK-3β; [6]) [µM] | other results
1 | Cn1c(NCCSSCCNc2c3c(nc4cc(Cl)ccc24)CCCC3)nc(-c2ccncc2)cc1=O [Compound 18a, 2-((2-((2-((6-Chloro-1,2,3,4-tetrahydroacridin-9-yl)amino)ethyl)disulfanyl)ethyl)amino)-3-methyl-6-(pyridin-4-yl)pyrimidin-4(3H)-one] | 0.047 ± 0.002 | 0.93 ± 0.08 | inhibition mode against AChE (AChE [2]): mixed type; hepatotoxicity on HepG2 cells (HepG2 cells): no significant hepatotoxicity; toxicity to SH-SY5Y neuroblastoma cells [3]: lack of toxicity; also recorded: no toxicity
2 | Cn1c(SCCNc2c3c(nc4ccc(Br)cc24)CCCC3)nc(-c2ccncc2F)cc1=O [Compound 16e, 2-((2-((7-Bromo-1,2,3,4-tetrahydroacridin-9-yl)amino)ethyl)thio)-6-(3-fluoropyridin-4-yl)-3-methylpyrimidin-4(3H)-one] | 15.3 ± 0.9 | 0.94 ± 0.02 | 
3 | Cn1c(SCCNc2c3c(nc4ccc(Cl)cc24)CCCC3)nc(-c2ccncc2)cc1=O [Compound 16c, 2-((2-((7-Chloro-1,2,3,4-tetrahydroacridin-9-yl)amino)ethyl)thio)-3-methyl-6-(pyridin-4-yl)pyrimidin-4(3H)-one] | 10.3 ± 0.7 | 2.28 ± 0.07 | 
4 | Cc1nc(-c2ccncc2)cc(=O)[nH]1 [Compound 5] |  |  | IC50 (GSK-3β; pyrimidone lead compound 5): 3 µM
5 | Cn1c(NCCSSCCNc2c3c(nc4ccc(Br)cc24)CCCC3)nc(-c2ccncc2)cc1=O [Compound 18b, 2-((2-((2-((7-Bromo-1,2,3,4-tetrahydroacridin-9-yl)amino)ethyl)disulfanyl)ethyl)amino)-3-methyl-6-(pyridin-4-yl)pyrimidin-4(3H)-one] | 2.13 ± 0.11 | 0.37 ± 0.02 | 
6 | Cn1c(SCCNc2c3c(nc4cc(Cl)ccc24)CCCC3)nc(-c2ccncc2)cc1=O [Compound 16a, 2-((2-((6-Chloro-1,2,3,4-tetrahydroacridin-9-yl)amino)ethyl)thio)-3-methyl-6-(pyridin-4-yl)pyrimidin-4(3H)-one] | 2.3 ± 0.14 | 15.1 ± 0.9 | 
7 | Cn1c(NCCSSCCNc2c3c(nc4ccc(Cl)cc24)CCCC3)nc(-c2ccncc2)cc1=O [Compound 18c, 2-((2-((2-((7-Chloro-1,2,3,4-tetrahydroacridin-9-yl)amino)ethyl)disulfanyl)ethyl)amino)-3-methyl-6-(pyridin-4-yl)pyrimidin-4(3H)-one] | 2.24 ± 0.13 | 0.42 ± 0.03 | 
8 | Cn1c(SCCNc2c3c(nc4ccc(Br)cc24)CCCC3)nc(-c2ccncc2)cc1=O [Compound 16b, 2-((2-((7-Bromo-1,2,3,4-tetrahydroacridin-9-yl)amino)ethyl)thio)-3-methyl-6-(pyridin-4-yl)pyrimidin-4(3H)-one] | 20 ± 1.5 | 38.5 ± 0.7 | 
9 | Cn1c(SCCNc2c3c(nc4ccc(Cl)cc24)CCCC3)nc(-c2ccncc2F)cc1=O [Compound 16f, 2-((2-((7-Chloro-1,2,3,4-tetrahydroacridin-9-yl)amino)ethyl)thio)-6-(3-fluoropyridin-4-yl)-3-methylpyrimidin-4(3H)-one] |  |  | IC50 (AChE [1]): 16.5 ± 0.8 µM; IC50 (recombinant human GSK-3β): 2.44 ± 0.06 µM
10 | Cn1c(NCCCCCCCNc2c3c(nc4cc(Cl)ccc24)CCCC3)nc(-c2ccncc2F)cc1=O [Compound 7] |  |  | IC50 (AChE [4]): 0.051 µM; IC50 (GSK-3β; previous hybrid compound 7): 0.089 µM
11 | Cn1c(SCCNc2c3c(nc4cc(Cl)ccc24)CCCC3)nc(-c2ccncc2F)cc1=O [Compound 16d, 2-((2-((6-Chloro-1,2,3,4-tetrahydroacridin-9-yl)amino)ethyl)thio)-6-(3-fluoropyridin-4-yl)-3-methylpyrimidin-4(3H)-one] | 1.89 ± 0.21 | 1.69 ± 0.09 | 
